This test concerns the target human STAT6 (Homo sapiens (Human), UniProt P42226). The test is described as follows: Surface plasmon resonance assay (Biacore 8K, binding to immobilized STAT6). The following applies: human STAT6 aa122-658, N-terminal His-tag, CM5 chip, 25° C.; geometric mean; read-out: STAT6 SPR Kd. How it is done: Biacore instruments from the 8K-series (Cytiva) were used, and measurements were performed at 25° C. Human STAT6 (truncated, aa122-658, with N-terminal His-tag, expressed in insect cells) was immobilized in the active flow cells on a CM5 chip using amine-coupling (default settings) at 10 μg/ml in 10 mM acetate buffer pH 5.5, at a contact time of 120-420 sec. and a flow rate of 10 μl/min. Reference flow cells were deactivated using blank immobilization. PBS-P+ (Cytiva) supplemented with 2% DMSO was used as running buffer, and solvent correction was applied. Compounds were tested by multi-cycle kinetics injections using a contact time of 60 sec., dissociation time of up to 300 sec., and a flow rate of 30 μl/min.
Solvent-corrected, reference-subtracted and blank-corrected data was processed and binding isotherms were fitted according to a single report point from each sensorgram (Standard: Late binding (5 sec. before injection end); alternative: Earlier report point according to binding profile). Data fitting was done both with unfixed Rmax and with Rmax fixed to the theoretical value* assuming 1:1 binding to allow processing of data from both weak and strong binders as well as to evaluate binding stoichiometry.
Positive controls were run at the beginning, during, and at the end of the screen to evaluate surface activity.
Sequence of human STAT6 (P42226 122-658): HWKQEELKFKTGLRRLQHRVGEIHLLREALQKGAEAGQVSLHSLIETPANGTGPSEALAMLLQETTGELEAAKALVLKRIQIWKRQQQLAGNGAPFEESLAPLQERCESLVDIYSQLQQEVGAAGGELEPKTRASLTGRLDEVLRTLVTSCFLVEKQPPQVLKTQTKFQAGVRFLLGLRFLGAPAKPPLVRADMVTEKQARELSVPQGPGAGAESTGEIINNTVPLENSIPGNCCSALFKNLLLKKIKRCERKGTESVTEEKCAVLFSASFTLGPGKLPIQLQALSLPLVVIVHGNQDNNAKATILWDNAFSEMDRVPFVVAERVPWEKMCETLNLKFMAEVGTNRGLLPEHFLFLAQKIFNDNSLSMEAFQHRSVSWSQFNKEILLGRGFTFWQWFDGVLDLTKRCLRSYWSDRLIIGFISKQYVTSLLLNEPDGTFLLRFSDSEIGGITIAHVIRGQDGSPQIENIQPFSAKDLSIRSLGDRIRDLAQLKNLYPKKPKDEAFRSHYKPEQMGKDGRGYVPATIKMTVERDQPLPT
The Kd is a measure of binding affinity in units of concentration. For the compound `CN(C)C(=O)c1ccc(C2CCN(Cc3cc4c(-c5cnc(N)cc5F)ccnc4n3C)CC2)cc1` [Example 1k15, 4-[1-[[4-(6-Amino-4-fluoro-3-pyridyl)-1-methyl-pyrrolo[2,3-b]pyridin-2-yl]methyl]-4-piperidyl]-N,N-dimethyl-benzamide], the Kd is 38.9 nM. In the case of `[2H]C([2H])([2H])N(C(=O)c1ccc(C2CCN(Cc3cc4c(-c5cnc(N)cc5F)ccnc4n3C)CC2)cc1)C([2H])([2H])[2H]` [Example 1k16, 4-[1-[[4-(6-Amino-4-fluoro-3-pyridyl)-1-methyl-pyrrolo[2,3-b]pyridin-2-yl]methyl]-4-piperidyl]-N,N-bis(trideuteriomethyl)benzamide], the Kd stood at 22.6 nM. Next, `CN(C)C(=O)c1ccc(C2CCN(Cc3cc4c(-c5ccc(N)nc5C(F)(F)F)ccnc4n3C)CC2)cc1` [Example 1k17, 4-[1-[[4-[6-Amino-2-(trifluoromethyl)-3-pyridyl]-1-methyl-pyrrolo[2,3-b]pyridin-2-yl]methyl]-4-piperidyl]-N,N-dimethyl-benzamide]: 212 nM; `CN(C)C(=O)c1ccc(C2CCN(Cc3cc4c(-c5ccc(N)nc5OC(F)(F)F)ccnc4n3C)CC2)cc1` [Example 1k18, 4-[1-[[4-[6-Amino-2-(trifluoromethoxy)-3-pyridyl]-1-methyl-pyrrolo[2,3-b]pyridin-2-yl]methyl]-4-piperidyl]-N,N-dimethyl-benzamide]: 153 nM. The same measure for `COc1c(N)ncc(-c2ccnc3c2cc(CN2CCC(c4ccc(C(=O)N(C)C)cc4)CC2)n3C)c1C` [Example 1k19, 4-[1-[[4-(6-Amino-5-methoxy-4-methyl-3-pyridyl)-1-methyl-pyrrolo[2,3-b]pyridin-2-yl]methyl]-4-piperidyl]-N,N-dimethyl-benzamide]: 738 nM; for `Cc1nc(-c2ccnc3c2cc(CN2CCC(c4ccc(C(=O)N(C)C)cc4)CC2)n3C)cnc1N` [Example 1k20, 4-[1-[[4-(5-Amino-6-methyl-pyrazin-2-yl)-1-methyl-pyrrolo[2,3-b]pyridin-2-yl]methyl]-4-piperidyl]-N,N-dimethyl-benzamide]: 1510 nM. Regarding `CN(C)C(=O)c1ccc(C2CCN(Cc3cc4c(-c5cnc(N)c(C#N)c5)ccnc4n3C)CC2)cc1` [Example 1k21, 4-[1-[[4-(6-Amino-5-cyano-3-pyridyl)-1-methyl-pyrrolo[2,3-b]pyridin-2-yl]methyl]-4-piperidyl]-N,N-dimethyl-benzamide], the Kd was 935 nM. Consider `[2H]C([2H])([2H])N(C(=O)c1ccc(C2CCN(Cc3cc4c(-c5ccc(N)nc5OC)ccnc4n3C)CC2)cc1)C([2H])([2H])[2H]` [Example 1k23, 4-[1-[[4-(6-Amino-2-methoxy-3-pyridyl)-1-methyl-pyrrolo[2,3-b]pyridin-2-yl]methyl]-4-piperidyl]-N,N-bis(trideuteriomethyl)benzamide], for which the Kd was determined as 25.5 nM. As for `CN(C)C(=O)c1ccc(C2CCN(Cc3cc4c(-c5cnc(N)c(C(F)F)c5)ccnc4n3C)CC2)cc1` [Example 1k24, 4-[1-[[4-[6-Amino-5-(difluoromethyl)-3-pyridyl]-1-methyl-pyrrolo[2,3-b]pyridin-2-yl]methyl]-4-piperidyl]-N,N-dimethyl-benzamide], the Kd turned out to be 336 nM.

`CN(C)C(=O)c1ccc(C2CCN(Cc3cc4c(-c5cnc(N)c(S(C)(=O)=O)c5)ccnc4n3C)CC2)cc1` [Example 1k25, 4-[1-[[4-(6-Amino-5-methylsulfonyl-3-pyridyl)-1-methyl-pyrrolo[2,3-b]pyridin-2-yl]methyl]-4-piperidyl]-N,N-dimethyl-benzamide]: the Kd stood at 6050 nM. The same measure for `COC(=O)CNc1ccc(-c2ccnc3c2cc(CN2CCC(c4ccc(C(=O)N(C)C)cc4)CC2)n3C)cn1` [Example 1k26, Methyl 2-[[5-[2-[[4-[4-(dimethylcarbamoyl)phenyl]-1-piperidyl]methyl]-1-methyl-pyrrolo[2,3-b]pyridin-4-yl]-2-pyridyl]amino]acetate]: 16.8 nM. The same measure for `CN(C)C(=O)c1ccc(C2CCN(Cc3cc4c(-c5cnc(N)cc5C(F)(F)F)ccnc4n3C)CC2)cc1` [Example 1k27, 4-[1-[[4-[6-Amino-4-(trifluoromethyl)-3-pyridyl]-1-methyl-pyrrolo[2,3-b]pyridin-2-yl]methyl]-4-piperidyl]-N,N-dimethyl-benzamide]: 5030 nM. As to `CC(=O)Nc1cc(C)c(-c2ccnc3c2cc(CN2CCC(c4ccc(C(=O)N(C)C)cc4)CC2)n3C)cn1` [Example 1k28, 4-[1-[[4-(6-Acetamido-4-methyl-3-pyridyl)-1-methyl-pyrrolo[2,3-b]pyridin-2-yl]methyl]-4-piperidyl]-N,N-dimethyl-benzamide], the Kd is 428 nM.

Regarding `Cc1cc(N)ncc1-c1ccnc2c1cc(CN1CCC(c3ccc(C(=O)N(C)C)cc3)CC1)n2C` [Example 1k30, 4-[1-[[4-(6-Amino-4-methyl-3-pyridyl)-1-methyl-pyrrolo[2,3-b]pyridin-2-yl]methyl]-4-piperidyl]-N,N-dimethyl-benzamide], the Kd came out at 62.1 nM.

Consider `Cc1cc(-c2ccnc3c2cc(CN2CCC(c4ccc(C(=O)N(C)C)cc4)CC2)n3C)c(C)nc1N` [Example 1k31, 4-[1-[[4-(6-Amino-2,5-dimethyl-3-pyridyl)-1-methyl-pyrrolo[2,3-b]pyridin-2-yl]methyl]-4-piperidyl]-N,N-dimethyl-benzamide], for which the Kd worked out at 78.5 nM. Next, `Cc1cc(N)cc(C)c1-c1ccnc2c1cc(CN1CCC(c3ccc(C(=O)N(C)C)cc3)CC1)n2C` [Example 1k32, 4-[1-[[4-(4-Amino-2,6-dimethyl-phenyl)-1-methyl-pyrrolo[2,3-b]pyridin-2-yl]methyl]-4-piperidyl]-N,N-dimethyl-benzamide]: 1230 nM; `COc1cc(-c2ccnc3c2cc(CN2CCC(c4ccc(C(=O)N(C)C)cc4)CC2)n3C)c(C)nc1N` [Example 1k33, 4-[1-[[4-(6-Amino-5-methoxy-2-methyl-3-pyridyl)-1-methyl-pyrrolo[2,3-b]pyridin-2-yl]methyl]-4-piperidyl]-N,N-dimethyl-benzamide]: 2770 nM.

`CN(C)C(=O)c1ccc(C2CCN(Cc3cc4c(-c5cnc(N)c(CO)c5)ccnc4n3C)CC2)cc1` [Example 1k34, 4-[1-[[4-[6-Amino-5-(hydroxymethyl)-3-pyridyl]-1-methyl-pyrrolo[2,3-b]pyridin-2-yl]methyl]-4-piperidyl]-N,N-dimethyl-benzamide]: the Kd is 245 nM. Take `CCOC(=O)c1nc(N)ccc1-c1ccnc2c1cc(CN1CCC(c3ccc(C(=O)N(C)C)cc3)CC1)n2C` [Example 1k35, Ethyl 6-amino-3-[2-[[4-[4-(dimethylcarbamoyl)phenyl]-1-piperidyl]methyl]-1-methyl-pyrrolo[2,3-b]pyridin-4-yl]pyridine-2-carboxylate]: the Kd amounted to 11 nM. In the case of `CN(C)C(=O)c1ccc(C2CCN(Cc3cc4c(-c5cnc(N)c(C(F)(F)F)c5)ccnc4n3C)CC2)cc1` [Example 1k36, 4-[1-[[4-[6-Amino-5-(trifluoromethyl)-3-pyridyl]-1-methyl-pyrrolo[2,3-b]pyridin-2-yl]methyl]-4-piperidyl]-N,N-dimethyl-benzamide], the Kd was determined as 1120 nM. `[2H]C([2H])([2H])N(C(=O)c1ccc(C2CCN(Cc3cc4c(-c5ccc(NC)nc5)ccnc4n3C)CC2)cc1)C([2H])([2H])[2H]` [Example 1k38, 4-[1-[[1-Methyl-4-[6-(methylamino)-3-pyridyl]pyrrolo[2,3-b]pyridin-2-yl]methyl]-4-piperidyl]-N,N-bis(trideuteriomethyl)benzamide]: the Kd is 27.7 nM. The same measure for `Cc1nc(N)cnc1-c1ccnc2c1cc(CN1CCC(c3ccc(C(=O)N(C)C)cc3)CC1)n2C` [Example 1k39, 4-[1-[[4-(5-Amino-3-methyl-pyrazin-2-yl)-1-methyl-pyrrolo[2,3-b]pyridin-2-yl]methyl]-4-piperidyl]-N,N-dimethyl-benzamide]: 2280 nM.

For the compound `CC(=O)Nc1ccc(-c2ccnc3c2cc(CN2CCC(c4ccc(C(=O)N(C)C)cc4)CC2)n3C)c(C)n1` [Example 1k40, 4-[1-[[4-(6-Acetamido-2-methyl-3-pyridyl)-1-methyl-pyrrolo[2,3-b]pyridin-2-yl]methyl]-4-piperidyl]-N,N-dimethyl-benzamide], the Kd amounted to 475 nM.

Regarding `CN(C)C(=O)c1ccc(C2CCN(Cc3cc4c(-c5cnc(N)nc5C#N)ccnc4n3C)CC2)cc1` [Example 1k41, 4-[1-[[4-(2-Amino-4-cyano-pyrimidin-5-yl)-1-methyl-pyrrolo[2,3-b]pyridin-2-yl]methyl]-4-piperidyl]-N,N-dimethyl-benzamide], the Kd amounted to 188 nM. Consider `Cc1c(-c2ccnc3c2cc(CN2CCC(c4ccc(C(=O)N(C)C)cc4)CC2)n3C)cnc(N)c1C#N` [Example 1k42, 4-[1-[[4-(6-Amino-5-cyano-4-methyl-3-pyridyl)-1-methyl-pyrrolo[2,3-b]pyridin-2-yl]methyl]-4-piperidyl]-N,N-dimethyl-benzamide], for which the Kd was determined as 731 nM.

Take `[2H]C([2H])([2H])n1c(CN2CCC(c3ccc(C(=O)N(C)C)cc3)CC2)cc2c(-c3ccc(N)nc3C#N)ccnc21` [Example 1k45, 4-[1-[[4-(6-Amino-2-cyano-3-pyridyl)-1-(trideuteriomethyl)pyrrolo[2,3-b]pyridin-2-yl]methyl]-4-piperidyl]-N,N-dimethyl-benzamide]: the Kd was 27.7 nM.

For the origin of these results see patent US20250340551A1, “SMALL MOLECULE MODULATORS OF STAT6” (Gilead Sciences, Inc., priority 2024, published 2025).
